Reference: ChEMBL document CHEMBL4706511, “Structure-based design, synthesis and bioactivity evaluation of macrocyclic inhibitors of mutant isocitrate dehydrogenase 2 (IDH2) displaying activity in acute myeloid leukemia cells” (Eur J Med Chem, 2020)
Residue numbers refer to the chain shown, from its start.

Target: Isocitrate dehydrogenase [NADP], mitochondrial (Homo sapiens, UniProt P48735, R140Q)
Assay: Inhibition of IDH2 R140Q mutant (unknown origin) assessed as reduction in NADPH consumption using alpha-ketoglutarate and NADPH as substrate preincubated with enzyme for 15 mins followed by substrate addition by fluorescence based assay
Conditions: not given

Chain of Isocitrate dehydrogenase [NADP], mitochondrial (Homo sapiens, UniProt P48735, R140Q) (P48735 40-452 R140Q limits assumed): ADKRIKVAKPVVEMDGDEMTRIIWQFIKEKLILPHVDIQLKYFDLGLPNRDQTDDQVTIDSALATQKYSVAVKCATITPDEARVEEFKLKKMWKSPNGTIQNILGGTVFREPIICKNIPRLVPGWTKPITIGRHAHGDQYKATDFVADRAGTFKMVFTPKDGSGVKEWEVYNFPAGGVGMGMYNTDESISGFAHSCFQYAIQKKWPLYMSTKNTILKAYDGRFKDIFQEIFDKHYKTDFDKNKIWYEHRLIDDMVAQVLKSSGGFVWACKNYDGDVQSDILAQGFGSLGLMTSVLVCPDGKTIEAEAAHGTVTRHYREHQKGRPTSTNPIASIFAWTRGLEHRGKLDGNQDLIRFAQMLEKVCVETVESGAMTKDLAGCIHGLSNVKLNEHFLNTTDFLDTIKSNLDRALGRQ

Compound	IC50 [nM]
C=CCOC(C)(C)CNc1nc(Nc2ccccc2)nc(-c2cccc(C(F)(F)F)n2)n1	46
FC(F)(F)c1cc2cc(c1)OCCCCCCNc1nc(nc(-c3cccc(C(F)(F)F)n3)n1)N2	133
FC(F)(F)c1cc2cc(c1)OC/C=C\CCNc1nc(nc(-c3cccc(C(F)(F)F)n3)n1)N2	18.4

Now from value to compound:

IC50 [nM]	Compound
26	CC(C)(O)CNc1nc(Nc2cccc(C(F)(F)F)c2)nc(-c2cccc(C(F)(F)F)n2)n1
13.8	FC(F)(F)c1cc2cc(c1)Nc1nc(nc(-c3cccc(C(F)(F)F)n3)n1)NCCC/C=C/C2
683	FC(F)(F)c1cc2cc(c1)Nc1nc(nc(-c3cccc(C(F)(F)F)n3)n1)NCC/C=C/C2

Target: Isocitrate dehydrogenase [NADP], mitochondrial (Homo sapiens, UniProt P48735, R172K)
Assay: Inhibition of IDH2 R172K mutant (unknown origin) assessed as reduction in NADPH consumption using alpha-ketoglutarate and NADPH as substrate preincubated with enzyme for 15 mins followed by substrate addition by fluorescence based assay
Conditions: not given

Chain of Isocitrate dehydrogenase [NADP], mitochondrial (Homo sapiens, UniProt P48735, R172K) (P48735 40-452 R172K limits assumed): as the sequence (P48735 40-452 R140Q limits assumed) above, with Q101R, R133K counted along it

Compound	IC50 [nM]
C=CCOC(C)(C)CNc1nc(Nc2ccccc2)nc(-c2cccc(C(F)(F)F)n2)n1	167
FC(F)(F)c1cc2cc(c1)OCCCCCCNc1nc(nc(-c3cccc(C(F)(F)F)n3)n1)N2	45.5
FC(F)(F)c1cc2cc(c1)OC/C=C\CCNc1nc(nc(-c3cccc(C(F)(F)F)n3)n1)N2	1570

The next lines start with the values.

IC50 [nM]	Compound
119	CC(C)(O)CNc1nc(Nc2cccc(C(F)(F)F)c2)nc(-c2cccc(C(F)(F)F)n2)n1
17.4	FC(F)(F)c1cc2cc(c1)Nc1nc(nc(-c3cccc(C(F)(F)F)n3)n1)NCCC/C=C/C2
> 10000	FC(F)(F)c1cc2cc(c1)Nc1nc(nc(-c3cccc(C(F)(F)F)n3)n1)NCC/C=C/C2

Target: T1, Isocitrate dehydrogenase [NADP], mitochondrial (Homo sapiens, UniProt P48735)
T1 sequence (P48735 whole entry): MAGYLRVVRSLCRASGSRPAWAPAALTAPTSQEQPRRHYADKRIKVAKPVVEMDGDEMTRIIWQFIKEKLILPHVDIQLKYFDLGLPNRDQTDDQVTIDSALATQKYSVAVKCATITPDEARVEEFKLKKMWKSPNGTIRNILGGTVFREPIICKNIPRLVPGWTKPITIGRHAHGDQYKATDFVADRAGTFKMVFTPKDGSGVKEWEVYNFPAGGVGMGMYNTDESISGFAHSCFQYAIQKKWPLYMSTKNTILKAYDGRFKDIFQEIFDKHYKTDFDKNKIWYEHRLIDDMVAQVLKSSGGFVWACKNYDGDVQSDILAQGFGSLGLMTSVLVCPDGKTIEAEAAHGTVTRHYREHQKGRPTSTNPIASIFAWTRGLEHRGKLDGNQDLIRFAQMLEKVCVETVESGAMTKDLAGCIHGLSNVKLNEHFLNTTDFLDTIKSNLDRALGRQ
Assay: Inhibition of wild type IDH2 (unknown origin) assessed as reduction in NADPH production using sodium(D)-isocitrate and NADP as substrate preincubated with enzyme for 15 mins followed by substrate addition by fluorescence based assay
Conditions: not given

Compound	IC50 [nM]
C=CCOC(C)(C)CNc1nc(Nc2ccccc2)nc(-c2cccc(C(F)(F)F)n2)n1	> 20000
FC(F)(F)c1cc2cc(c1)OCCCCCCNc1nc(nc(-c3cccc(C(F)(F)F)n3)n1)N2	> 20000
FC(F)(F)c1cc2cc(c1)OC/C=C\CCNc1nc(nc(-c3cccc(C(F)(F)F)n3)n1)N2	> 20000

Other lines, results leading:

IC50 [nM]	Compound
> 20000	CC(C)(O)CNc1nc(Nc2cccc(C(F)(F)F)c2)nc(-c2cccc(C(F)(F)F)n2)n1
14100	FC(F)(F)c1cc2cc(c1)Nc1nc(nc(-c3cccc(C(F)(F)F)n3)n1)NCCC/C=C/C2
> 20000	FC(F)(F)c1cc2cc(c1)Nc1nc(nc(-c3cccc(C(F)(F)F)n3)n1)NCC/C=C/C2

Tested on: TF-1
Assay: Cytotoxicity aganist human TF-1 cells harboring IDH2 mutant
Type: functional, cell-based
Conditions: not given

Compound	IC50 [nM]
CC(C)(O)CNc1nc(Nc2cccc(C(F)(F)F)c2)nc(-c2cccc(C(F)(F)F)n2)n1	> 10000
C=CCOC(C)(C)CNc1nc(Nc2ccccc2)nc(-c2cccc(C(F)(F)F)n2)n1	> 10000
FC(F)(F)c1cc2cc(c1)Nc1nc(nc(-c3cccc(C(F)(F)F)n3)n1)NCC/C=C/C2	> 10000

Tested on: not listed separately
Assay: Metabolic stability in human liver microsomes assessed as parent compound remaining at 100 ug/ml measured after 15 mins in presence of NADPH by LC-MS analysis
Type: ADME, Microsome
Conditions: at 100 µg/mL, read-out: Stabilty

Compound	remaining at 0.25 h, 100 ug/ml [%]
FC(F)(F)c1cc2cc(c1)OCCCCCCNc1nc(nc(-c3cccc(C(F)(F)F)n3)n1)N2	93
FC(F)(F)c1cc2cc(c1)OC/C=C\CCNc1nc(nc(-c3cccc(C(F)(F)F)n3)n1)N2	89

Continued, values first:

remaining at 0.25 h, 100 ug/ml [%]	Compound
86	CC(C)(O)CNc1nc(Nc2cccc(C(F)(F)F)c2)nc(-c2cccc(C(F)(F)F)n2)n1
> 99	FC(F)(F)c1cc2cc(c1)Nc1nc(nc(-c3cccc(C(F)(F)F)n3)n1)NCCC/C=C/C2

Tested on: not listed separately
Assay: Metabolic stability in human liver microsomes assessed as parent compound remaining at 100 ug/ml measured after 45 mins in presence of NADPH by LC-MS analysis
Type: ADME, Microsome
Conditions: at 100 µg/mL, read-out: Stabilty

Compound	remaining at 0.75 h, 100 ug/ml [%]
FC(F)(F)c1cc2cc(c1)OCCCCCCNc1nc(nc(-c3cccc(C(F)(F)F)n3)n1)N2	97
FC(F)(F)c1cc2cc(c1)OC/C=C\CCNc1nc(nc(-c3cccc(C(F)(F)F)n3)n1)N2	66

Next, values leading:

remaining at 0.75 h, 100 ug/ml [%]	Compound
81	CC(C)(O)CNc1nc(Nc2cccc(C(F)(F)F)c2)nc(-c2cccc(C(F)(F)F)n2)n1
91	FC(F)(F)c1cc2cc(c1)Nc1nc(nc(-c3cccc(C(F)(F)F)n3)n1)NCCC/C=C/C2

Tested on: not listed separately
Assay: Metabolic stability in human liver microsomes assessed as parent compound remaining at 100 ug/ml measured after 90 mins in presence of NADPH by LC-MS analysis
Type: ADME, Microsome
Conditions: at 100 µg/mL, read-out: Stabilty

Compound	remaining at 1.5 h, 100 ug/ml [%]
FC(F)(F)c1cc2cc(c1)OCCCCCCNc1nc(nc(-c3cccc(C(F)(F)F)n3)n1)N2	85
FC(F)(F)c1cc2cc(c1)OC/C=C\CCNc1nc(nc(-c3cccc(C(F)(F)F)n3)n1)N2	64

The remaining lines, values ahead:

remaining at 1.5 h, 100 ug/ml [%]	Compound
81	CC(C)(O)CNc1nc(Nc2cccc(C(F)(F)F)c2)nc(-c2cccc(C(F)(F)F)n2)n1
90	FC(F)(F)c1cc2cc(c1)Nc1nc(nc(-c3cccc(C(F)(F)F)n3)n1)NCCC/C=C/C2

Tested on: T2, Isocitrate dehydrogenase [NADP], mitochondrial (Homo sapiens), P48735 [R140Q]
T2 sequence (whole entry): T1 sequence (P48735 whole entry) with R140Q
Assay: Potency index, ratio of AG-221 IC50 to test compound IC50 for IDH2 R140Q mutant (unknown origin) assessed as reduction in NADPH consumption using alpha-ketoglutarate and NADPH as substrate preincubated with enzyme for 15 mins followed by substrate addition by fluorescence based assay
Conditions: not given

Ratio IC50	Compound
3	FC(F)(F)c1cc2cc(c1)Nc1nc(nc(-c3cccc(C(F)(F)F)n3)n1)NCCC/C=C/C2
6	FC(F)(F)c1cc2cc(c1)Nc1nc(nc(-c3cccc(C(F)(F)F)n3)n1)NCCCCCC2
